{"source": "patent US4103011A", "about": "“Novel penicillin compounds and process for preparation thereof” (priority 1976, dated 1978)", "key": {"[1]": {"test_system": "Staphylococcus aureus No. 50774", "test": "In vivo efficacy against systemic infection", "set-up": "species or system male mice (ddY)", "conditions": "NO.50774, in Mus musculus, 336 h, sc, twice, about 5 minutes and 6 hours after infection, read-out: ED50 (median effective dose)", "how_it_was_run": "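Male ddY mice (~20 g) infected intravenously with 50 to 100 LD50 (about 5 × 10^8 cells/mouse) of S. aureus No. 50774 in saline. Compounds in water or aqueous sodium carbonate (pH 8-9) dosed twice, about 5 minutes and 6 hours post-infection; ED50 (mg/kg) by Behrens-Kaerber method.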"}, "[2]": {"test_system": "Escherichia coli NIHJ JC-2", "test": "In vitro antibacterial activity (MIC)", "format": "cell-based", "conditions": "Escherichia coli, NIHJJC2, read-out: minimum inhibitory concentration (MIC)", "from_the_text": "(§1) In vitro antibacterial activity against 20 strains of bacteria\n(§2) The numerals in the table show minimum inhibitory concentrations (MIC)"}, "Proteus rettgeri P-2503": {"test_system": "Proteus rettgeri P-2503", "test": "In vitro antibacterial activity (MIC)", "format": "cell-based", "conditions": "Providencia rettgeri, P2503; Proteus rettgeri P-2503; read-out: minimum inhibitory concentration (MIC)", "from_the_text": "as §1, §2"}, "Proteus morganii Kono": {"test_system": "Proteus morganii Kono", "test": "In vitro antibacterial activity (MIC)", "format": "cell-based", "conditions": "Morganella morganii, read-out: minimum inhibitory concentration (MIC)", "from_the_text": "as §1, §2"}, "[3]": {"test_system": "Enterobacter cloacae P-2540", "test": "In vitro antibacterial activity (MIC)", "format": "cell-based", "conditions": "Enterobacter cloacae, P2540, read-out: minimum inhibitory concentration (MIC)", "from_the_text": "as §1, §2"}, "[4]": {"test_system": "Klebsiella pneumoniae No. 13", "test": "In vitro antibacterial activity (MIC)", "format": "cell-based", "conditions": "Klebsiella pneumoniae, NO.13, read-out: minimum inhibitory concentration (MIC)", "from_the_text": "as §1, §2"}, "[5]": {"test_system": "Streptococcus faecalis P-2473", "test": "In vitro antibacterial activity (MIC)", "format": "cell-based", "conditions": "Enterococcus faecalis, P2473, read-out: minimum inhibitory concentration (MIC)", "from_the_text": "as §1, §2"}, "[6]": {"test_system": "Shigella flexneri 4a P-330", "test": "In vitro antibacterial activity (MIC)", "format": "cell-based", "conditions": "4AP330, read-out: minimum inhibitory concentration (MIC)", "from_the_text": "as §1, §2"}, "Escherichia coli P-5101": {"test_system": "Escherichia coli P-5101", "test": "In vitro antibacterial activity (MIC)", "format": "cell-based", "conditions": "P5101; Escherichia coli P-5101; read-out: minimum inhibitory concentration (MIC)", "from_the_text": "as §1, §2"}, "[7]": {"test_system": "Streptococcus pyogenes 65A", "test": "In vitro antibacterial activity (MIC)", "format": "cell-based", "conditions": "Streptococcus pyogenes 65A; read-out: minimum inhibitory concentration (MIC)", "from_the_text": "as §1, §2"}, "[8]": {"test_system": "Staphylococcus aureus 209P JC-1", "test": "In vitro antibacterial activity (MIC)", "format": "cell-based", "conditions": "Staphylococcus aureus 209P JC-1; read-out: minimum inhibitory concentration (MIC)", "from_the_text": "as §1, §2"}, "[9]": {"test_system": "Salmonella typhimurium S-9", "test": "In vitro antibacterial activity (MIC)", "format": "cell-based", "conditions": "Salmonella enterica; Salmonella typhimurium S-9; read-out: minimum inhibitory concentration (MIC)", "from_the_text": "as §1, §2"}, "[10]": {"test_system": "Pseudomonas aeruginosa Tsuchijima", "test": "In vitro antibacterial activity (MIC)", "format": "cell-based", "conditions": "Pseudomonas aeruginosa Tsuchijima; read-out: minimum inhibitory concentration (MIC)", "from_the_text": "as §1, §2"}, "[11]": {"test_system": "Pseudomonas aeruginosa No. 12", "test": "In vivo efficacy against systemic infection", "set-up": "species or system male mice (ddY)", "conditions": "for ED50: NO.12, in Mus musculus", "how_it_was_run": "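Male ddY mice (about 20 g) infected intraperitoneally with a Pseudomonas aeruginosa No. 12 suspension. Compounds in deionized water were given twice, about 5 minutes and 6 hours after infection. Effective dose calculated by the Behrens-Kaerber method.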"}, "[12]": {"test_system": "bacteria (systemic infection)", "test": "In vivo efficacy against systemic infection, overall conclusions", "set-up": "species or system male mice (ddY)", "conditions": "Table II", "procedure": "The contents in the vials (No. A and No. C) prepared in Example 17 were each dissolved in deionized water, and injections having various concentrations were prepared.\nCompounds A, B, F, G, H and M were dissolved in deionized water. Compounds C, D, E and J were dissolved in an aqueous solution of sodium carbonate (pH 8-9) to prepare injections of various concentrations.\nEach of the injections was administered to mice under the conditions described below, and the median effective doses (ED50) obtained are shown in Table II."}, "Plasma level in mice": {"test": "Plasma level in mice", "format": "in vivo, male mice (ddY)", "procedure": "The contents of the vials (No. A) obtained in Example 17 were dissolved in deionized water to form solutions of compound 1 in a concentration of 100 mg/ml. The solutions were intramuscularly (im) administered to twenty four male mice (ddY) having an average body weight of 26 g at a dose of 25 mg/kg.\nBlood was taken by cardiac puncture from four mice ech 0.25, 0.5, 1, 2, 3 and 4 hours after administration, and centrifuged individually to separate the plasma.\nDrug levels were determined by the thin-layer cup-plate method using Escherichia coli Kp as an indicator organism. Plasma was appropriately (to more than 10 times) diluted with a 0.067 M phosphate buffer having a pH of 7.0. A standard calibration line was prepared in the same buffer."}, "[13]": {"test": "Urinary excretion in mice", "format": "in vivo, male mice (ddY)", "conditions": "for a: amount in urine: 4 mice, total body weight 101.8 g", "procedure": "The contents of the vials (No. A) obtained in Example 17 were dissolved in deionized water to form solutions of penicillin compound 1 in a concentration of 25 mg/ml. The solutions were administered in a dose of 25 mg/kg (im) to four male mice (ddY) having an average body weight of 25 g. After given periods of time, the urine was collected from the four mice, and the concentration of the penicillin compound 1 in the urine was determined.\nUrine was collected by using a metabolism cage for 3, 6, and 24 hours after administration. The pooled urine was diluted with a 0.067M phosphate buffer (pH 7.0) before assay to 500 times for the 0-3 hour urine, 100 times for the 3-6 hour urine and 10 times for the 6-24 hour urine.\nThe levels of compound 1 were determined by the thin-layer cup-plate method using Escherichia coli Kp as an indicator microorganism and a standard calibration line was prepared in a 0.067M phosphate buffer (pH 7.0)."}, "[14]": {"conditions": "after parenteral administration"}}, "note": "Counter-ions that a name gives are not always drawn. Like-named read-outs stand apart in the source and are kept apart here.", "data": [{"smiles": "CC1(C)S[C@@H]2[C@H](NC(=O)[C@H](NC(=O)c3c[nH]c4nc(N5CCN(C=O)CC5)ncc4c3=O)c3ccc(O)cc3)C(=O)N2[C@H]1C(=O)O", "note": "[Compound 1, D-α-[5,8-Dihydro-2-(4-formyl-1-piperazinyl)-5-oxopyrido[2,3-d]pyrimidine-6-carboxamido]-p-hydroxybenzyl-penicillin sodium salt]", "values": [{"measurement": "ED50", "setting": "[1]", "value": 2.1, "unit": "mg/kg"}, {"measurement": "MIC", "setting": "[2]", "value": 3.13, "unit": "µg/mL"}, {"measurement": "MIC", "setting": "Proteus rettgeri P-2503", "value": 25, "unit": "µg/mL"}, {"measurement": "MIC", "setting": "Proteus morganii Kono", "value": 6.25, "unit": "µg/mL"}, {"measurement": "MIC", "setting": "[3]", "value": 6.25, "unit": "µg/mL"}, {"measurement": "MIC", "setting": "[4]", "value": 12.5, "unit": "µg/mL"}, {"measurement": "MIC", "setting": "[5]", "value": 3.13, "unit": "µg/mL"}, {"measurement": "MIC", "setting": "[6]", "value": 3.13, "unit": "µg/mL"}, {"measurement": "MIC", "setting": "Escherichia coli P-5101", "value": 1.56, "unit": "µg/mL"}, {"measurement": "MIC", "setting": "[7]", "value": 0.006, "unit": "µg/mL"}, {"measurement": "MIC", "setting": "[8]", "value": 0.78, "unit": "µg/mL"}, {"measurement": "MIC", "setting": "[9]", "value": 0.78, "unit": "µg/mL"}, {"measurement": "MIC", "setting": "[10]", "value": 0.78, "unit": "µg/mL"}, {"measurement": "ED50", "setting": "[11]; iv, twice, about 5 minutes and 6 hours after infection, read-out: ED50 (median effective dose)", "value": 4.1, "unit": "mg/kg"}, {"measurement": "ED50", "setting": "[11]; parenteral administration, compounds 1 and 2 together, read-out: ED50", "value": "2 to 6", "unit": "mg/kg"}, {"measurement": "ED50", "setting": "[11]; sc, twice, about 5 minutes and 6 hours after infection, read-out: ED50 (median effective dose)", "value": 2.1, "unit": "mg/kg"}, {"measurement": "antibacterial activity compared with compounds J and H (in words)", "setting": "[11]; parenteral administration", "value": "far superior antibacterial activity"}, {"measurement": "antibacterial activity relative to compounds B and C (times as high)", "setting": "[11]; parenteral administration", "value": "3 to 25", "unit": "times"}, {"measurement": "antibacterial activity relative to compounds D and E (times as high)", "setting": "[11]; parenteral administration", "value": "6 to 20", "unit": "times"}, {"measurement": "antibacterial activity in vivo (in words)", "setting": "[12]", "value": "excellent antibacterial activity in vivo"}, {"measurement": "plasma level (in words)", "setting": "Plasma level in mice; [14]", "value": "much the same concentration as the MIC"}, {"measurement": "concentration at 0.25 h", "setting": "Plasma level in mice; mouse, plasma, 25 mg/kg, im, single dose, 0.25 hour, read-out: Average plasma conc.", "value": 27400, "unit": "ng/mL"}, {"measurement": "concentration at 0.5 h", "setting": "Plasma level in mice; mouse, plasma, 25 mg/kg, im, single dose, 0.5 hour, read-out: Average plasma conc.", "value": 21500, "unit": "ng/mL"}, {"measurement": "concentration at 1 h", "setting": "Plasma level in mice; mouse, plasma, 25 mg/kg, im, single dose, 1 hour, read-out: Average plasma conc.", "value": 15600, "unit": "ng/mL"}, {"measurement": "concentration at 2 h", "setting": "Plasma level in mice; mouse, plasma, 25 mg/kg, im, single dose, 2 hour, read-out: Average plasma conc.", "value": 9570, "unit": "ng/mL"}, {"measurement": "concentration at 3 h", "setting": "Plasma level in mice; mouse, plasma, 25 mg/kg, im, single dose, 3 hour, read-out: Average plasma conc.", "value": 4010, "unit": "ng/mL"}, {"measurement": "concentration at 4 h", "setting": "Plasma level in mice; mouse, plasma, 25 mg/kg, im, single dose, 4 hour, read-out: Average plasma conc.", "value": 2740, "unit": "ng/mL"}, {"measurement": "a: amount in urine", "setting": "[13]; 25 mg/kg, im, single dose, 0-3 hour", "value": 0.718, "unit": "mg"}, {"measurement": "a: amount in urine", "setting": "[13]; 25 mg/kg, im, single dose, 3-6 hour", "value": 0.0480, "unit": "mg"}, {"measurement": "a: amount in urine", "setting": "[13]; 25 mg/kg, im, single dose, 6-24 hour", "value": 0.0483, "unit": "mg"}, {"measurement": "urinary level (in words)", "setting": "[13]; [14]", "value": "higher than its MIC (μg/ml) values against various bacteria shown in Table I"}, {"measurement": "dose excreted at 3 h", "setting": "[13]; mouse, urine, im, 25 mg/kg, im, single dose, 0-3 hour, read-out: cr: cumulative urinary recovery", "value": 28.2, "unit": "%"}, {"measurement": "dose excreted at 3 h", "setting": "[13]; mouse, urine, im, 25 mg/kg, im, single dose, 0-3 hour, read-out: r: urinary recovery", "value": 28.2, "unit": "%"}, {"measurement": "dose excreted at 6 h", "setting": "[13]; mouse, urine, im, 25 mg/kg, im, single dose, 3-6 hour, read-out: r: urinary recovery", "value": 1.89, "unit": "%"}, {"measurement": "dose excreted at 24 h", "setting": "[13]; mouse, urine, im, 25 mg/kg, im, single dose, 6-24 hour, read-out: r: urinary recovery", "value": 1.9, "unit": "%"}, {"measurement": "dose excreted at 6 h", "setting": "[13]; mouse, urine, im, 25 mg/kg, im, single dose, column 3-6 hour, read-out: cr: cumulative urinary recovery", "value": 30, "unit": "%"}, {"measurement": "dose excreted at 24 h", "setting": "[13]; mouse, urine, im, 25 mg/kg, im, single dose, column 6-24 hour, read-out: cr: cumulative urinary recovery", "value": 31.9, "unit": "%"}, {"measurement": "concentration at 3 h", "setting": "[13]; mouse, urine, 25 mg/kg, im, single dose, 0-3 hour, read-out: c: urinary concentration", "value": 187000, "unit": "ng/mL"}, {"measurement": "concentration at 6 h", "setting": "[13]; mouse, urine, 25 mg/kg, im, single dose, 3-6 hour, read-out: c: urinary concentration", "value": 21500, "unit": "ng/mL"}, {"measurement": "concentration at 24 h", "setting": "[13]; mouse, urine, 25 mg/kg, im, single dose, 6-24 hour, read-out: c: urinary concentration", "value": 7250, "unit": "ng/mL"}]}]}
